Source: patent publication US12637454B2, “Heterocyclic monoacylglycerol lipase (MAGL) inhibitors” (Hoffmann-La Roche Inc., priority 2019, dated 2026)

target: T1, MAGL (Homo sapiens, UniProt Q99685); assay: 2-AG assay (MAGL inhibitory activity, hydrolysis of 2-arachidonoylglycerol followed by mass spectrometry); type: biochemical; conditions: 50 pM MAGL, 8 μM 2-arachidonoylglycerol, 15 min preincubation, 30 min incubation at RT
T1 sequence (Q99685 1-303): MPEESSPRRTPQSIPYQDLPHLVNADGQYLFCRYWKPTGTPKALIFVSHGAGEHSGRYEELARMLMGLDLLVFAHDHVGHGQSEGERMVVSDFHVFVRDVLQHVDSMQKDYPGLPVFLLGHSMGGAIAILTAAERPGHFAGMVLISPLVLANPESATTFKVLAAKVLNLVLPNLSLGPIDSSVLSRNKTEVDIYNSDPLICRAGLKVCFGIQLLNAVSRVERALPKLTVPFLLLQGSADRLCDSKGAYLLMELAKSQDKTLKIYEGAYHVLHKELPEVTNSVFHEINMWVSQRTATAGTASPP
Procedure: Compounds were profiled for MAGL inhibitory activity by determining the enzymatic activity by following the hydrolysis of the natural substrate 2-arachidonoylglycerol (2-AG) resulting in arachidonic acid, which can be followed by mass spectrometry. This assay is hereinafter abbreviated “2-AG assay”.
The 2-AG assay was carried out in 384 well assay plates (PP, Greiner Cat #784201) in a total volume of 20 μL. Compound dilutions were made in 100% DMSO (VWR Chemicals 23500.297) in a polypropylene plate in 3-fold dilution steps to give a final concentration range in the assay from 12.5 μM to 0.8 pM. 0.25 μL compound dilutions (100% DMSO) were added to 9 μL MAGL in assay buffer (50 mM TRIS (GIBCO, 15567-027), 1 mM EDTA (Fluka, 03690-100 mL), 0.01% (v/v) Tween. After shaking, the plate was incubated for 15 min at RT. To start the reaction, 10 μL 2-arachidonoylglycerol in assay buffer was added. The final concentrations in the assay was 50 pM MAGL and 8 μM 2-arachidonoylglyerol. After shaking and 30 min incubation at RT, the reaction was quenched by the addition of […] of ACN containing 4 μM of d8-arachidonic acid. The amount of arachidonic acid was traced by an online SPE system (Agilent Rapidfire) coupled to a triple quadrupole mass spectrometer (Agilent 6460). A C18 SPE cartridge (G9205A) was used in an ACN/water liquid setup. The mass spectrometer was operated in negative electrospray mode following the mass transitions 303.1→259.1 for arachidonic acid and 311.1→267.0 for d8-arachidonic acid. The activity of the compounds was calculated based on the ratio of intensities [arachidonic acid/d8-arachidonic acid].

Compound | IC50 [µM]
COc1ccc(C(=O)N2CCN3C[C@@](O)(c4ccc(Cl)cc4)CC[C@@H]3C2)c(Cl)n1 [Example 7, [(7S,9aR)-7-(4-chlorophenyl)-7-hydroxy-3,4,6,8,9,9a-hexahydro-1H-pyrido[1,2-a]pyrazin-2-yl]-(2-chloro-6-methoxypyridin-3-yl)methanone] | 0.398
COc1cccc(C(=O)N2CCN3C[C@@](O)(CC(C)C)CC[C@@H]3C2)c1Cl (racemic) [Example 24, (2-Chloro-3-methoxyphenyl)-[rac-(7R,9aS)-7-hydroxy-7-(2-methylpropyl)-3,4,6,8,9,9a-hexahydro-1H-pyrido[1,2-a]pyrazin-2-yl]methanone] | 0.626
Cn1c(Cl)c(C(=O)N2CCN3C[C@@](O)(c4ccc(Cl)cc4)CC[C@@H]3C2)ccc1=O [Example 12, 5-[(7S,9aR)-7-(4-chlorophenyl)-7-hydroxy-3,4,6,8,9,9a-hexahydro-1H-pyrido[1,2-a]pyrazine-2-carbonyl]-6-chloro-l-methylpyridin-2-one] | 4.46
COc1cccc(C(=O)N2CCN3C[C@@](O)(c4ccc(C(F)(F)F)cn4)CC[C@@H]3C2)c1Cl [Example 18] | 0.0972
COc1cccc(C(=O)N2CCN3C[C@@](O)(C(F)(F)F)CC[C@@H]3C2)c1Cl (racemic) [Example 26, (2-Chloro-3-methoxyphenyl)-[rac-(7R,9aR)-7-hydroxy-7-(trifluoromethyl)-3,4,6,8,9,9a-hexahydro-1H-pyrido[1,2-a]pyrazin-2-yl]methanone] | 0.678
CC(C)(C)OC(=O)N1CCN(c2cccc(C(=O)N3CCN4C[C@@](O)(c5ccc(Cl)cc5)CC[C@@H]4C3)c2F)CC1 [Example 22, tert-butyl 4-[3-[(7S,9aR)-7-(4-chlorophenyl)-7-hydroxy-3,4,6,8,9,9a-hexahydro-1H-pyrido[1,2-a]pyrazine-2-carbonyl]-2-fluorophenyl]piperazine-1-carboxylate] | 0.838
O=C(c1cccc(-c2ccn[nH]2)c1Cl)N1CCN2C[C@@](O)(c3ccc(C(F)(F)F)cn3)CC[C@@H]2C1 [Example 20, [(7R,9aR)-7-hydroxy-7-[5-(trifluoromethyl)pyridin-2-yl]-3,4,6,8,9,9a-hexahydro-1H-pyrido[1,2-a]pyrazin-2-yl]-[2-chloro-3-(1H-pyrazol-5-yl)phenyl]methanone] | 0.0115
C=CC(=O)Nc1ccc(/C=C/c2cccc(C(=O)N3CCN4C[C@@H](c5ccc(Cl)cc5)CC[C@@H]4C3)c2Br)cc1 [Example 30, N-[4-[(E)-2-[3-[(7R,9aR)-7-(4-chlorophenyl)-1,3,4,6,7,8,9,9a-octahydropyrido[1,2-a]pyrazine-2-carbonyl]-2-bromophenyl]ethenyl]phenyl]prop-2-enamide] | 0.0185
O=C(c1cccc(-c2c[nH]nc2F)c1Cl)N1CCN2C[C@@](O)(c3ccc(Cl)cc3)CC[C@@H]2C1 [Example 5, [(7S,9aR)-7-(4-chlorophenyl)-7-hydroxy-3,4,6,8,9,9a-hexahydro-1H-pyrido[1,2-a]pyrazin-2-yl]-[2-chloro-3-(3-fluoro-1H-pyrazol-4-yl)phenyl]methanone] | 0.00195
O=C(c1cccc(OC(F)F)c1Cl)N1CCN2C[C@@](O)(c3ccc(C(F)(F)F)cn3)CC[C@@H]2C1 (stereo in doubt) [Example 37, [(7R,9aR)-7-hydroxy-7-[5-(trifluoromethyl)pyridin-2-yl]-3,4,6,8,9,9a-hexahydro-1H-pyrido[1,2-a]pyrazin-2-yl]-[2-chloro-3-(difluoromethoxy)phenyl]methanone] | 0.898
O=C(c1cccc(N2CC(O)C2)c1Cl)N1CCN2C[C@@](O)(c3ccc(C(F)(F)F)cn3)CC[C@@H]2C1 [Example 32, [(7R,9aR)-7-hydroxy-7-[5-(trifluoromethyl)pyridin-2-yl]-3,4,6,8,9,9a-hexahydro-1H-pyrido[1,2-a]pyrazin-2-yl]-[2-chloro-3-(3-hydroxyazetidin-1-yl)phenyl]methanone] | 0.0727
O=C1CN(c2cccc(C(=O)N3CCN4C[C@@](O)(c5ccc(Cl)cc5)CC[C@@H]4C3)c2Cl)CCN1 [Example 35, 4-[3-[(7S,9aR)-7-(4-chlorophenyl)-7-hydroxy-3,4,6,8,9,9a-hexahydro-1H-pyrido[1,2-a]pyrazine-2-carbonyl]-2-chlorophenyl]piperazin-2-one] | 0.086
O=C(c1cccc(/C=C/c2ccccc2)c1Br)N1CCN2C[C@@H](c3ccc(Cl)cc3)CC[C@@H]2C1 [Example 28, [(7R,9aR)-7-(4-chlorophenyl)-1,3,4,6,7,8,9,9a-octahydropyrido[1,2-a]pyrazin-2-yl]-[2-bromo-3-[(E)-2-phenylethenyl]phenyl]methanone] | 0.169
Cc1cn[nH]c1-c1cccc(C(=O)N2CCN3C[C@@](O)(c4ccc(Cl)cc4)CC[C@@H]3C2)c1Cl [Example 16, [(7S,9aR)-7-(4-chlorophenyl)-7-hydroxy-3,4,6,8,9,9a-hexahydro-1H-pyrido[1,2-a]pyrazin-2-yl]-[2-chloro-3-(4-methyl-1H-pyrazol-5-yl)phenyl]methanone] | 0.0103
Cc1c[nH]nc1-c1cccc(C(=O)N2CCN3C[C@@](O)(c4ccc(Cl)cc4)CC[C@@H]3C2)c1 [Example 17] | 0.255

The next lines start with the values.

IC50 [µM] | Compound
0.278 | COc1cccc(C(=O)N2CCN3CC(O)(c4ccc(C(F)(F)F)nc4)CCC3C2)c1Cl (racemic) [Example 71, (2-chloro-3-methoxyphenyl)-[rac-(7R,9aR)-7-hydroxy-7-[6-(trifluoromethyl)pyridin-3-yl]-3,4,6,8,9,9a-hexahydro-1H-pyrido[1,2-a]pyrazin-2-yl]methanone]
0.292 | O=C(c1cccc(N2CCC[C@@H](O)C2)c1Cl)N1CCN2C[C@@](O)(c3ccc(F)c(Cl)c3)CC[C@@H]2C1 [Example 48, [(7S,9aR)-7-(3-chloro-4-fluorophenyl)-7-hydroxy-3,4,6,8,9,9a-hexahydro-1H-pyrido[1,2-a]pyrazin-2-yl]-[2-chloro-3-[(3R)-3-hydroxypiperidin-1-yl]phenyl]methanone]
0.126 | O=C(c1cccc(-c2ccsn2)c1Cl)N1CCN2C[C@@](O)(c3ccc(C(F)(F)F)cn3)CC[C@@H]2C1 [Example 69, [(7R,9aR)-7-hydroxy-7-[5-(trifluoromethyl)pyridin-2-yl]-3,4,6,8,9,9a-hexahydro-1H-pyrido[1,2-a]pyrazin-2-yl]-[2-chloro-3-(1,2-thiazol-3-yl)phenyl]methanone]
0.392 | O=C(c1cccc(F)c1Cl)N1CCN2C[C@@](O)(c3ccc(C(F)(F)F)cn3)CC[C@@H]2C1 [Example 41, [(7R,9aR)-7-hydroxy-7-[5-(trifluoromethyl)pyridin-2-yl]-3,4,6,8,9,9a-hexahydro-1H-pyrido[1,2-a]pyrazin-2-yl]-(2-chloro-3-fluorophenyl)methanone]
0.0394 | O=C(c1cccc(N2CC(O)C2)c1Cl)N1CCN2C[C@@](O)(c3ccc(F)c(F)c3)CC[C@@H]2C1 [Example 63, [(7S,9aR)-7-(3,4-difluorophenyl)-7-hydroxy-3,4,6,8,9,9a-hexahydro-1H-pyrido[1,2-a]pyrazin-2-yl]-[2-chloro-3-(3-hydroxyazetidin-1-yl)phenyl]methanone]
0.327 | O=C(c1cccc(OC(F)F)c1Cl)N1CCN2C[C@](O)(c3ccc(C(F)(F)F)cn3)CC[C@H]2C1 (stereo in doubt) [Example 38, [(7S,9aS)-7-hydroxy-7-[5-(trifluoromethyl)pyridin-2-yl]-3,4,6,8,9,9a-hexahydro-1H-pyrido[1,2-a]pyrazin-2-yl]-[2-chloro-3-(difluoromethoxy)phenyl]methanone]
0.0843 | O=C(c1cccc(N2CC(F)(CO)C2)c1Cl)N1CCN2C[C@@](O)(c3ccc(F)c(Cl)c3)CC[C@@H]2C1 [Example 52, [(7S,9aR)-7-(3-chloro-4-fluorophenyl)-7-hydroxy-3,4,6,8,9,9a-hexahydro-1H-pyrido[1,2-a]pyrazin-2-yl]-[2-chloro-3-[3-fluoro-3-(hydroxymethyl)azetidin-1-yl]phenyl]methanone]
0.0668 | O=C(c1cccc(N2CC[C@@H](O)C2)c1Cl)N1CCN2C[C@@](O)(c3ccc(Cl)cc3)CC[C@@H]2C1 [Example 45, [(7S,9aR)-7-(4-chlorophenyl)-7-hydroxy-3,4,6,8,9,9a-hexahydro-1H-pyrido[1,2-a]pyrazin-2-yl]-[2-chloro-3-[(3R)-3-hydroxypyrrolidin-1-yl]phenyl]methanone]
0.0808 | O=C(c1cccc(N2CCC(O)CC2)c1Cl)N1CCN2C[C@@](O)(c3ccc(Cl)cc3)CC[C@@H]2C1 [Example 49, [(7S,9aR)-7-(4-chlorophenyl)-7-hydroxy-3,4,6,8,9,9a-hexahydro-1H-pyrido[1,2-a]pyrazin-2-yl]-[2-chloro-3-(4-hydroxypiperidin-1-yl)phenyl]methanone]
